Measurements taken from patent publication US20240368668A1, “SUBSTRATES AND BIOMARKERS OF ADAMTS7” (The Broad Institute, Inc., priority 2021, published 2024).
Square brackets hold non-standard residues; d marks the D form. Ends that are not written are not given here. pGlu = O=C1CC[C@@H](C(=O)O)N1

tested on: mouse ADAMTS7; assay: TMT10 TAILS N-terminomics, SMC2 experiment (process replicates, trypsin/AspN digest); format: cell-based; conditions: SMC2_TAILS HC; log fold change, mWT over mEQ
Text: ADAMTS7 Expression, Cell Culture and Preparation of the Secreted Proteins—Full-length mouse Adamts7 1-1857 (Uniprot Q68SA9, WT or E373Q catalytic mutant) with a carboxyl terminal 3xFLAG tag was used to generate custom adenoviruses as previously described. Adeno-CMV-Luciferase (Ad-Luc) from Vector Biolabs was used as a negative control. Human Coronary Artery Smooth Muscle Cells (HCA-SMC) were obtained from Lonza and expanded in Lonza SmGM-2 media in 15 cm tissue culture plates. Twenty-four hours before media collection, near confluent plates were transduced with 50 MOI adenovirus and switched to Lonza Basal SM media with volumes of 20 ml per 15 cm plate. Expression of the Flag tagged ADAMTS7 was confirmed from the media using western blot and detected using the anti-Flag M2-HRP antibody (Sigma, A8592). Collected media was processed by adding protease inhibitors (1 mM EDTA and 1 mM PMSF) and clarified by 500 g×5 min spin at 4 C to pellet cell debris. Cell media supernatants were then passed through a 0.22 um filter and kept chilled. Processed media was then concentrated 50-100× using 3 kDa Centricon Plus-70 filter unit, spun at 3,500 g×60 min at 4 C. Approximately 10% of the processed, concentrated media was set aside for total secretome proteolytic analysis. The remaining 90% of the processed, concentrated media was buffer exchanged into 50 mM HEPES pH 8.0, 150 mM NaCl (2×50 ml) using the 3 kDa Centricon Plus-70 filter unit and concentrated to >2 mg/ml to serve as input for the TAILS experiment. Secretome and TAILS input samples were stored at −80° C.
For the first experiment, referred to as SMC1, 120 ml of media from 6×15 cm dishes was pooled from each condition (Luc, WT, EQ) and processed to produce three separate inputs for the TAILS experiment. Luc, WT and EQ inputs from the SMC1 experiment were each divided into triplicate 400 ug samples to generate technical replicate TAILS data. For the second experiment, referred to as SMC2, media was processed separately in triplicate for each condition (Luc1, Luc2, Luc3, WT1, WT2, WT3, EQ1, EQ2, EQ3) using 60 ml of media from 3×15 cm dishes for each process replicate. Inputs from the SMC2 experiment used process replicates of 300 ug each to generate TAILS data. The third experiment used input from cultured Human umbilical vein endothelial cells (HUVEC) from Lifeline Cell Technology grown in VascuLife Media and transduced in Lifeline Basal EC (+bFGF2 10 ng/ml). The HUVEC experiment used the same strategy as the SMC2 experiment, with 40 ml of media from 2×15 cm dishes for each process replicate and used 200 ug each to generate TAILS data. Inputs for process replicate experiments were restricted to the lowest concentration from the 9 parallel samples for SMC2 or HUVEC.
TMT10 isotopic labeling and negative selection of non-labeled peptides-Sample preparation was performed based on the TAILS protocol from the Overall lab with some modifications. From a single experiment, nine parallel protein samples in 50 mM HEPES pH 8.0, 150 mM NaCl were separately denatured with guanidinium chloride (Sigma, G4505) to reach a final concentration of 2.5M guanidinium chloride and 250 mM HEPES and incubated at 65° C. for 15 min. Reduction was achieved through addition of tris(2-carboxylethyl) phosphine (TCEP) at a final concentration of […] and incubated at 65° C. for 45 min. Alkylation reaction was performed with addition of iodoacetamide (IAA, Sigma, A3221) to a final concentration of 10 mM IAA for 15 min at room temperature in the dark. Following denaturation, reduction and alkylation steps, ten percent of each of the nine parallel protein samples was removed and combined to serve as a pooled reference. Isobaric tags were added to free amine groups using the TMT10plex Isobaric Mass Tagging Kit (ThermoFisher, 90113) with TMT channels randomly assigned to the nine samples and TMT 131 assigned to the pooled reference. […]

Row | Substance | logFC.mWT.over.mEQ
1 | AEBP1_37 (FLEGFLSELEPEPR; listed as Homo sapiens) | 3.48
2 | CCDC80_66 (LEEPNLQPLQR; listed as Homo sapiens) | 2.21
3 | EFEMP1_124 (AVAGPEMQTGR; listed as Homo sapiens) | 3.27
4 | EFEMP1_125 (VAGPEMQTGR; listed as Homo sapiens) | 2.42
5 | FBLN2_259 (ALGPPAPVQAKAR; listed as Homo sapiens) | 1.88
6 | FBLN2_260 (LGPPAPVQAKAR; listed as Homo sapiens) | 2.42
7 | FBN1_29 (LEAGNVKETR; listed as Homo sapiens) | 3.57
8 | FBN1_53 (LKGPNVCGSR; listed as Homo sapiens) | 4.89
9 | FLNA_1285 (LTQTGGPHVKAR; listed as Homo sapiens) | 5.72
10 | FN1_36 (MVQPQSPVAVSQSKPGCYDNGKHYQINQQWER; listed as Homo sapiens) | 3.69
11 | FN1_40 (QSPVAVSQSKPGCYDNGKHYQINQQWER; listed as Homo sapiens) | 2.66
12 | FN1_1143 (LTPGVEYVYTIQVLR; listed as Homo sapiens) | 2.80

tested on: mouse ADAMTS7; assay: TMT10 TAILS N-terminomics, SMC1 experiment (Ad-mADAMTS7 WT vs EQ vs Luc, technical replicates, trypsin digest); format: cell-based; conditions: TAILS neo-N-terminal peptide abundance; log fold change, Ad-mADAMTS7 WT over EQ
Method in brief: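 Full-length mouse ADAMTS7 (WT or E373Q mutant, C-terminal 3xFLAG) or luciferase was transduced via adenovirus, 50 MOI, into HCA-SMC (SMC1, SMC2) or HUVEC. SMC1: pooled media, technical triplicates 400 ug; SMC2: process triplicates 300 ug; HUVEC: process triplicates 200 ug, bFGF2 10 ng/ml.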

Row | Substance | logFC.mWT.over.mEQ
13 | ACTB_21 (FAGDDAPR; listed as Homo sapiens) | 1.17
14 | ACTB_105 (LTEAPLNPKANR; listed as Homo sapiens) | 2.00
15 | ADAM9_69 (VIQAEGKEHIIHLER; listed as Homo sapiens) | 1.55
16 | AEBP1_37 (FLEGFLSELEPEPR; listed as Homo sapiens) | 3.41
17 | APLP2_579 (ISETPVDVR; listed as Homo sapiens) | 2.00
18 | CCDC80_66 (LEEPNLQPLQR; listed as Homo sapiens) | 3.70
19 | ECM1_134 (FGDQSHPEPESWNAAQHCQQDR; listed as Homo sapiens) | 2.74
20 | EFEMP1_124 (AVAGPEMQTGR; listed as Homo sapiens) | 4.43
21 | EFEMP1_125 (VAGPEMQTGR; listed as Homo sapiens) | 2.25
22 | EFHD2_67 (QGIGEPQSPSR; listed as Homo sapiens) | 0.90
23 | EHBP1L1_298 (TAPTPAPR; listed as Homo sapiens) | 1.23
24 | FBLN2_259 (ALGPPAPVQAKAR; listed as Homo sapiens) | 1.29
25 | FBLN2_260 (LGPPAPVQAKAR; listed as Homo sapiens) | 4.21
26 | FBN1_29 (LEAGNVKETR; listed as Homo sapiens) | 4.49
27 | FBN1_53 (LKGPNVCGSR; listed as Homo sapiens) | 4.93
28 | FLNA_612 (SVEGPSQAKIECDDKGDGSCDVR; listed as Homo sapiens) | 1.69
29 | FLNA_695 (FTVDAKHGGKAPLR; listed as Homo sapiens) | 5.04
30 | FLNA_1285 (LTQTGGPHVKAR; listed as Homo sapiens) | 5.06
31 | FN1_36 (MVQPQSPVAVSQSKPGCYDNGKHYQINQQWER; listed as Homo sapiens) | 3.34
32 | FN1_40 (QSPVAVSQSKPGCYDNGKHYQINQQWER; listed as Homo sapiens) | 4.27
33 | FN1_45 (VSQSKPGCYDNGKHYQINQQWER; listed as Homo sapiens) | 3.20

Row | Substance | logFC.mWT.over.mEQ
34 | FN1_47 ([code q]SKPGCYD[code n]GKHYQINQQWER; not fully specified; listed as Homo sapiens) | 2.89
35 | FN1_281 (SGSGPFTDVR; listed as Homo sapiens) | 1.88
36 | FN1_282 (GSGPFTDVR; listed as Homo sapiens) | 3.89
37 | FN1_886 (NQESTPVVIQQETTGTPR; listed as Homo sapiens) | 1.21
38 | FN1_1143 (LTPGVEYVYTIQVLR; listed as Homo sapiens) | 0.86
39 | FN1_1731 (FTDVDVDSIKIAWESPQGQVSR; listed as Homo sapiens) | 2.70
40 | FN1_2143 (FEEHGFR; listed as Homo sapiens) | 1.24
41 | FN1_2217 (FQDTSEYIISCHPVGTDEEPLQFR; listed as Homo sapiens) | 2.27
42 | GALNT2_31 (LAGGAGGGAGR; listed as Homo sapiens) | 1.19
43 | GSN_35 (SQAGAPQGR; listed as Homo sapiens) | 4.37
44 | HEG1_49 (GAGLELQLER; listed as Homo sapiens) | 1.20
45 | HLA−C_52 (VDDTQFVR; listed as Homo sapiens) | 0.78
46 | HSPG2_1937 (SSAGQQVAR; listed as Homo sapiens) | 0.94
47 | HSPG2_2688 (VADSGEYVCR; listed as Homo sapiens) | 3.02
48 | HSPG2_3250 (SPLPWQHR; listed as Homo sapiens) | 1.01
49 | HSPG2_3542 (IAHVELADAGQYR; listed as Homo sapiens) | 0.67
50 | HSPG2_3647 ([pGlu]GKVKAFAHLQVPER; listed as Homo sapiens) | 1.22
51 | HSPG2_3672 (SFLPLPTIKDAYR; listed as Homo sapiens) | 1.03
52 | HSPG2_3813 (SSGFIGCVR; listed as Homo sapiens) | 1.09
53 | HSPG2_4004 (SAEPLALGR; listed as Homo sapiens) | 1.25
54 | HSPG2_4021 (LNKDGSLR; listed as Homo sapiens) | 0.73

Row | Substance | logFC.mWT.over.mEQ
55 | HSPG2_4075 (GCVGEVSVNGKR; listed as Homo sapiens) | 0.75
56 | HSPG2_4133 (DGFKGDLCEHEENPCQLR; listed as Homo sapiens) | 0.76
57 | HTRA1_33 (LAAGCPDR; listed as Homo sapiens) | 2.78
58 | IFI30_43 (YKTGNLYLR; listed as Homo sapiens) | 3.19
59 | IGFBP3_200 (FSSESKR; listed as Homo sapiens) | 2.41
60 | LASP1_123 (HEEFEKSR; listed as Homo sapiens) | 1.40
61 | LGALS1_53 (HGDANTIVCNSKDGGAWGTEQR; listed as Homo sapiens) | 3.89
62 | LGALS3BP_447 (FQAPSDYR; listed as Homo sapiens) | 4.13
63 | LOXL2_318 (AYKPEQPLVR; listed as Homo sapiens) | 0.78
64 | LOX_80 (ANASAQQPR; listed as Homo sapiens) | 2.18
65 | LOX_81 (NASAQQPR; listed as Homo sapiens) | 1.69
66 | LTBP1_494 (SVQIHQVSR; listed as Homo sapiens) | 2.63
67 | LTBP1_546 (HVYPVAAKTQLGR; listed as Homo sapiens) | 4.67
68 | LTBP2_485 (SVQIHQVAQVR; listed as Homo sapiens) | 2.23
69 | LTBP2_533 (SGEPPRPLPPAAPR; listed as Homo sapiens) | 1.06
70 | LTBP2_677 (SLGPGTCTLPLAQR; listed as Homo sapiens) | 0.85
71 | LTBP2_760 (SSGALPGPAER; listed as Homo sapiens) | 1.24
72 | LTBP2_1023 (GKCTNLEGSFR; listed as Homo sapiens) | 0.71
73 | LTBP2_1371 (SGQKGHAPCSSVLGR; listed as Homo sapiens) | 0.93
74 | LTBP2_1560 (TTYTECCCQDGEAWSQQCALCPPR; listed as Homo sapiens) | 0.71
75 | LTBP2_1584 (SSEVYAQLCNVAR; listed as Homo sapiens) | 1.08
